This test has as its system rat islets of Langerhans. In words: glucose-stimulated insulin secretion by isolated islets of Langerhans. The format is cell-based. To be noted: glucose 10 mmol/L. Here is the method:
All experiments were performed by known methods used in experimental practice. See, e.g., Lacey P. E., and Kostianovsky M, Method for the isolation of intact islets of Langerhans from the rat pancreas. Diabetes 1967; 16: 35-39.
Briefly, rats were killed, and islets of Langerhans were isolated from their pancreases. Experiments were performed either with freshly isolated islets or after overnight incubation of islets (23 h) in standard culture medium and conditions at 37° C. […] Incubation of islets for these experiments was carried out in standard Krebs-Heinsleit buffer, and it was verified that the addition of the 1.0 mmol/L citrate buffer had no effect on the pH of the incubation medium. Stimulation of islets was carried out at the standard stimulatory glucose concentration of 10 mmol/L.
Production of insulin is expressed as μU/islet/h. All experiments were performed with five replicates per point. The integrity of the islet response was assessed by comparing the responses after stimulation of different aliquots of islets by two and ten mmol/L glucose, respectively, and the strength of the inhibitory response was judged against that induced by 1 μg/ml (650 nmol/L) somatostatin. […] See Arimura A. Biomed res 1981; 2: 233-257. […] See Petterson M., Ahren B., Bottcher G., Sundler F., Endocrinology 1986; 119: 865-869.
The results are shown in TABLE 5 below and all results are expressed as ± standard error of the mean (s.e.m.). The significance of differences between the means of groups is assessed by the t-test. The result of stimulation by 10 mmol/L glucose is compared with the results of stimulation at 2 mmol/L glucose. In all other experimental conditions, the significance of the inhibitory effect is measured against the effect of 10 mmol/L glucose alone.

CGRP 27-37: the “INSULIN PRODUCTION Mean Value” by setting is: (substance 10 nmol/L) 36 μU/islet/hr; (substance 100 nmol/L) 36 μU/islet/hr; (substance 1000 nmol/L) 46 μU/islet/hr. The “RELATIVE INSULIN SECRETION INHIBITION” value reads like this: (substance 10 nmol/L) 55%; (substance 100 nmol/L) 55%; (substance 1000 nmol/L) 42%.

With `C[C@H](N)C(=O)NCC(=O)N[C@H]1CSSC[C@@H](C(=O)O)NC(=O)[C@H](CO)NC(=O)[C@H]([C@@H](C)O)NC(=O)[C@H](Cc2ccccc2)NC(=O)[C@H]([C@@H](C)O)NC(=O)[C@H](CCCCN)NC(=O)[C@H](Cc2c[nH]c3ccccc23)NC(=O)[C@H](Cc2ccccc2)NC(=O)[C@H](Cc2ccccc2)NC(=O)[C@H](CC(N)=O)NC(=O)[C@H](CCCCN)NC1=O` [Somatostatin, reference compound], where the note is “substance 650 nmol/L”, the “INSULIN PRODUCTION Mean Value” was 44 μU/islet/hr and the “RELATIVE INSULIN SECRETION INHIBITION” value is recorded as 45%.

The values are drawn from patent publication US5281581A, “Treatment of insulin resistance” (Amylin Pharmaceuticals, Inc., priority 1992, dated 1994).
